Assay results as given in patent US12415770B2, “Modulators of liver receptor homologue 1 (LRH-1) and uses” (Emory University, priority 2017, dated 2025).
Entries after “also recorded” stand apart in the source; their conditions may differ. Like-named read-outs stand apart in the source and are kept apart here.

How the values were obtained:
LRH-1 LBD = biological target: T1, LRH-1 LBD (Homo sapiens, UniProt O00482); assay: Thermofluor (DSF) assay, purified LRH-1 LBD-His protein; assay type: binding; details: for ΔTm at 50 µM: read-out: ΔTm (mean +/− SEM) (° C.); for stabilization of LRH-1-ligand complex / Tm shift: WT LRH-1
T1 construct: LRH-1 LBD (residues 299-541) in the pMSC7 vector was expressed in BL21 (DE3) pLysS E. coli; made in house; host or cells: E. coli BL21 (DE3) pLysS
T1 sequence (O00482 299-541): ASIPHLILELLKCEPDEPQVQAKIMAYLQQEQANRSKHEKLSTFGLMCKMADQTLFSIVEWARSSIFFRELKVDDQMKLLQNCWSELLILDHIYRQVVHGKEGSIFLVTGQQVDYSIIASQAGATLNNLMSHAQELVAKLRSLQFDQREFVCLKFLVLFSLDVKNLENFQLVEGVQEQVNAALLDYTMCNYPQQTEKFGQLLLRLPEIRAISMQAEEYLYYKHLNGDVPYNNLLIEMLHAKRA
How it was run: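 Purified His-tagged LRH-1 LBD (0.2 mg/ml) was incubated overnight at 4° C with 50 μM compound (1% DMSO final), then SYPRO orange was added. Samples were heated at 0.5° C per minute. Tm came from Boltzmann fits after subtracting no-protein baseline fluorescence.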

LRH-1 = biological target: T2, LRH-1 (Homo sapiens, UniProt O00482); assay: Luciferase reporter assay (SHP-luc) in HeLa cells transfected with full-length LRH-1; assay type: cell-based; details: for Relative Efficacy: fold increase over baseline (DMSO-treated cells) relative to the fold increase induced by RJW100; for LRH-1 activation: WT LRH-1
T2 construct: The transfected plasmids included full-length LRH-1 in a pCI vector; expressed in transfected cells; host or cells: HeLa
T2 sequence (O00482 whole entry): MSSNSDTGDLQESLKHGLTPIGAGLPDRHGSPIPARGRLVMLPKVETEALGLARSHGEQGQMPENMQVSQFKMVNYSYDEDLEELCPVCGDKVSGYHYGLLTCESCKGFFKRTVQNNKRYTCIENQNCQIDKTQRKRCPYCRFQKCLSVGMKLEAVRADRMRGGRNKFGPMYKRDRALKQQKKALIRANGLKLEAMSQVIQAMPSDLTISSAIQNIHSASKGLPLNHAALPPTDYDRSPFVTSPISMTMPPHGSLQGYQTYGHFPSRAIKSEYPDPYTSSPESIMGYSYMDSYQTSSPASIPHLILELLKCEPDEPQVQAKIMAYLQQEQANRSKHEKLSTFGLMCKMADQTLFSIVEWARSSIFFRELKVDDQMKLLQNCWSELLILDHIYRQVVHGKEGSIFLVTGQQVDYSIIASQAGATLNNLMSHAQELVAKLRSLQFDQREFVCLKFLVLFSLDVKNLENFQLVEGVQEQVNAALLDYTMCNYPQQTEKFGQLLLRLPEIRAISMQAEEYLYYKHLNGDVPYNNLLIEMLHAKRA
Experimental: EC50 and Relative Activity values were calculated from luciferase reporter assays.

[1] = cited from earlier work
H390A-LRH-1 = H390A-LRH-1 (Homo sapiens, UniProt O00482, H390A); assay: Luciferase reporter assay (SHP-luc), H390A mutant LRH-1; details: His-390 mutated to alanine
Chain of H390A-LRH-1 (O00482 whole entry H390A): as the sequence (O00482 whole entry) above, with H390A counted along it

[2] = 50 μM compound, relative to DLPC-bound LRH-1
[3] = HeLa cells, SHP-luc reporter, 24 hours, 0.03-30 μM
[4] = diabetic mice fed DLPC, mouse models of insulin resistance

CCCCCCC1=C(c2ccccc2)[C@]2(C(C)c3ccccc3)CC[C@H](O)C2C1 (stereo partly drawn) [Compound 39-endo, (Endo or Exo)-5-hexyl-4-phenyl-3a-(1-phenylethyl)-1,2,3,3a,6,6a-hexahydropentalen-1-ol]
ΔTm at 50 µM (LRH-1 LBD; [2]): 0.4 °C | Relative Efficacy (LRH-1): 0.13

CCCCCCC1=C(c2ccccc2)[C@]2(C(C)c3ccccc3)CC[C@@H](O)C2C1 (stereo partly drawn) [Compound 39-exo, (Endo or Exo)-5-hexyl-4-phenyl-3a-(1-phenylethyl)-1,2,3,3a,6,6a-hexahydropentalen-1-ol]
ΔTm at 50 µM (LRH-1 LBD; [2]): 0.1 °C | Relative Efficacy (LRH-1): 0.06

C=C(c1ccccc1)[C@@]12CC[C@@H](O)C1CC(CCCCCCCCOC(C)=O)=C2c1ccccc1 (stereo partly drawn) [Compound 47-endo, (Exo or Endo) 8-(6-hydroxy-3-phenyl-3a-(1-phenylvinyl)-1,3a,4,5,6,6a-hexahydropentalen-2-yl)octyl acetate]
ΔTm (mean +/− SEM) (° C.) (LRH-1 LBD; 50 μM compound, relative to DLPC-bound LRH-1, 50 µM): ns (Ns = Tm changes were less than 1° C.) | Relative Efficacy (LRH-1): 1.48

C=C(c1ccccc1)[C@@]12CC[C@@H](O)C1CC(CCCCCCCCOC(C)=O)=C2c1ccccc1 (stereo partly drawn) [Compound 47-exo, (Exo or Endo) 8-(6-hydroxy-3-phenyl-3a-(1-phenylvinyl)-1,3a,4,5,6,6a-hexahydropentalen-2-yl)octyl acetate]
ΔTm at 50 µM (LRH-1 LBD; [2]): 1.5 °C | EC50 (LRH-1; [3]): 0.7 µM | Relative Efficacy (LRH-1): 3.70

C=C(c1ccccc1)C12CCC(OS(=O)(=O)NC(N)=O)C1CC(CCCCCC)=C2c1ccccc1 (stereo not drawn) [Compound 50-endo, (Endo or Exo)-5-hexyl-4-phenyl-3a-(1-phenylvinyl)-1,2,3,3a,6,6a-hexahydropentalen-1-yl carbamoylsulfamate]
stabilization of LRH-1-ligand complex / Tm shift (LRH-1 LBD): greatly stabilized the LRH-1-ligand complex | LRH-1 activation (LRH-1): comparable or slightly higher LRH-1 activation

C=C(c1ccccc1)[C@@]12CCC(O)C1CC(CCCCCCCCOP(=O)(OCC)OCC)=C2c1ccccc1 (stereo partly drawn) [Compound 53-endo, (Endo or Exo) diethyl (8-(6-hydroxy-3-phenyl-3a-(1-phenylvinyl)-1,3a,4,5,6,6a-hexahydropentalen-2-yl)octyl)phosphate]
ΔTm at 50 µM (LRH-1 LBD): < 1 °C | Relative Efficacy (LRH-1): 1.04

C=C(c1ccccc1)[C@@]12CCC(O)C1CC(CCCCCCCCOP(=O)(OCC)OCC)=C2c1ccccc1 (stereo partly drawn) [Compound 53-exo, (Endo or Exo) diethyl (8-(6-hydroxy-3-phenyl-3a-(1-phenylvinyl)-1,3a,4,5,6,6a-hexahydropentalen-2-yl)octyl)phosphate]
ΔTm (mean +/− SEM) (° C.) (LRH-1 LBD; [2]): ns (Ns = Tm changes were less than 1° C.) | Relative Efficacy (LRH-1): 0.37

CCCCCCCCCCCC(=O)OC[C@H](COP(=O)([O-])OCC[N+](C)(C)C)OC(=O)CCCCCCCCCCC [DLPC, dilauroyl-phosphatidylcholine]
bile acid levels ([1]; DLPC treatment, mouse): increases bile acid levels | hepatic triglycerides and serum glucose ([1]; DLPC treatment, mouse): lowers hepatic triglycerides and serum glucose | circulating insulin, triglycerides, and free fatty acids ([1]; diabetic mice fed DLPC): reduced quantities | glucose tolerance / glucose homeostasis [1, 4]: improves glucose homeostasis; also recorded: improved glucose tolerance | hepatic fat accumulation / hepatic steatosis [1, 4]: decreases hepatic steatosis; also recorded: reduced hepatic fat accumulation

CCC/C=C(\CCC)C1=C(c2ccccc2)[C@]2(Nc3ccccc3)CCC[C@@H]2C1 [GSK8470, reference compound]
activation of H390A-LRH-1 (H390A-LRH-1): completely unable to activate | stabilization of LRH-1-ligand complex / Tm shift (LRH-1 LBD): did not affect the melting profile | increase of LRH-1 activity compared with DMSO (LRH-1; WT LRH-1, highest dose): ~2.5 fold | EC50 (LRH-1; WT LRH-1, text): ~4 µM

((((endo or exo)-5-hexyl-4-phenyl-3a-(1-phenylvinyl)-1, 2, 3, 3a, 6,6a-hexahydropentalen-1-yl)oxy)carbonyl)sulfamic acid [Compound 40-endo]
ΔTm (mean +/− SEM) (° C.) (LRH-1 LBD; [2]): 1.95 +/− 0.15 °C | stabilization of LRH-1-ligand complex / Tm shift (LRH-1 LBD): greatly stabilized the protein-ligand complex | EC50 (LRH-1; [3]): > 30 µM | LRH-1 activation (LRH-1): increased activation of LRH-1 compared to RJW100 | Relative Efficacy (LRH-1): −0.2
